Patent US9884832B2 (priority 2011, dated 2018)

The molecules below were run against AM2 S31N (serine→asparagine mutation at residue 31 in the M2 protein) (Influenza A virus, UniProt P0DOF5, S31N). Details: not given.
Type: cell-based, influenza virus A/Udorn/72

SMILES | S31N OOcyte Inhibition at 100 uM (%)
C(NC12CC3CC(CC(C3)C1)C2)c1noc(C2CC2)n1 [Example 166a] | A (key: (A)=31-95%; (B)=0-30%)
COc1ccc(-c2cc(CNC34CC5CC(CC(C5)C3)C4)on2)cc1 [Example 122a, N-((3-(4-methoxyphenyl)isoxazol-5-yl)methyl)adamantan-1-amine] | A (key: (A)=31-95%; (B)=0-30%)
c1cncc(-c2noc(CNC34CC5CC(CC(C5)C3)C4)n2)c1 [Example 135a, Adamantan-1-yl-(3-pyridin-3-yl-[1,2,4]oxadiazol-5-ylmethyl)-amine] | A (key: (A)=31-95%; (B)=0-30%)
CCc1nc(CNC23CC4CC(CC(C4)C2)C3)no1 [Example 165a] | A (key: (A)=31-95%; (B)=0-30%)
c1ccc(-c2ncc(CNC34CC5CC(CC(C5)C3)C4)cn2)cc1 [Example 63a, N-((2-phenylpyrimidin-5-yl)methyl)adamantan-1-amine] | A (key: (A)=31-95%; (B)=0-30%)
c1coc(-c2nc(CNC34CC5CC(CC(C5)C3)C4)no2)c1 [Example 160a, N-((5-(furan-2-yl)-1,2,4-oxadiazol-3-yl)methyl)adamantan-1-amine] | A (key: (A)=31-95%; (B)=0-30%)
Cn1c(CNC23CC4CC(CC(C4)C2)C3)nc2ccccc21 [Example 180a, Adamantan-1-yl-(1-methyl-1H-benzoimidazol-2-ylmethyl)-amine] | B (key: (A)=31-95%; (B)=0-30%)
C[Si](C)(C)c1ccc(CNC23CC4CC(CC(O)(C4)C2)C3)cc1 [Example 193a, (1s,3r,5R,7S)-3-((4-(trimethylsilyl)benzyl)amino)adamantan-1-ol] | A (key: (A)=31-95%; (B)=0-30%)
Cc1nc(CNC23CC4CC(CC(C4)C2)C3)no1 [Example 96a, N-((5-methyl-1,2,4-oxadiazol-3-yl)methyl)adamantan-1-amine] | A (key: (A)=31-95%; (B)=0-30%)
Cc1cc(CNC23CC4CC(CC(C4)C2)C3)no1 [Example 95a, N-((5-methylisoxazol-3-yl)methyl)adamantan-1-amine] | A (key: (A)=31-95%; (B)=0-30%)
c1ccc(-c2ncc(CNC34CC5CC(CC(C5)C3)C4)cn2)nc1 [Example 64a, N-((2-(pyridin-2-yl)pyrimidin-5-yl)methyl)adamantan-1-amine] | B (key: (A)=31-95%; (B)=0-30%)
c1ccc(-c2nc(CNC34CC5CC(CC(C5)C3)C4)cs2)cc1 [Example 132a, N-((2-phenylthiazol-4-yl)methyl)adamantan-1-amine] | B (key: (A)=31-95%; (B)=0-30%)
c1csc(-c2ccc(CNC34CC5CC(CC(C5)C3)C4)cn2)c1 [Example 58a, N-((6-(thiophen-2-yl)pyridin-3-yl)methyl)adamantan-1-amine] | A (key: (A)=31-95%; (B)=0-30%)
FC(F)(F)c1ccc(-c2nc(CNC34CC5CC(CC(C5)C3)C4)no2)cc1 [Example 129a, N-((5-(4-(trifluoromethyl)phenyl)-1,2,4-oxadiazol-3-yl)methyl)adamantan-1-amine] | A (key: (A)=31-95%; (B)=0-30%)
CC(C)n1cc(CNC23CC4CC(CC(C4)C2)C3)cn1 [Example 85a, N-((1-isopropyl-1H-pyrazol-4-yl)methyl)adamantan-1-amine] | B (key: (A)=31-95%; (B)=0-30%)
c1ccc(-c2cc(CNC34CC5CC(CC(C5)C3)C4)on2)cc1 [Example 164a] | A (key: (A)=31-95%; (B)=0-30%)
Nc1ncc(CNC23CC4CC(CC(C4)C2)C3)s1 [Example 93a, 5-((adamantan-1-ylamino)methyl)thiazol-2-amine] | B (key: (A)=31-95%; (B)=0-30%)
c1nc(CNC23CC4CC(CC(C4)C2)C3)no1 [Example 73a, Adamantan-1-yl-[1,2,4]oxadiazol-3-ylmethyl-amine] | A (key: (A)=31-95%; (B)=0-30%)
c1cc(-c2cc(CNC34CC5CC(CC(C5)C3)C4)no2)cs1 [Example 150a, Adamantan-1-yl-(5-thiophen-3-yl-isoxazol-3-ylmethyl)-amine] | A (key: (A)=31-95%; (B)=0-30%)
c1cc(-c2ccc(CNC34CC5CC(CC(C5)C3)C4)cn2)cs1 [Example 59a, N-((6-(thiophen-3-yl)pyridin-3-yl)methyl)adamantan-1-amine] | A (key: (A)=31-95%; (B)=0-30%)
OC12CC3CC(C1)CC(NCc1cc4sccc4s1)(C3)C2 [Example 192a, 3-[(Thieno[3,2-b]thiophen-2-ylmethyl)-amino]-adamantan-1-ol] | A (key: (A)=31-95%; (B)=0-30%)
COC(=O)c1ccc(-c2ccc(CNC34CC5CC(CC(O)(C5)C3)C4)cc2)cc1 [Example 190a, 4′-[(3-Hydroxy-adamantan-1-ylamino)-methyl]-biphenyl-4-carboxylic acid methyl ester] | A (key: (A)=31-95%; (B)=0-30%)
c1csc(C2=NOC(CNC34CC5CC(CC(C5)C3)C4)C2)c1 (stereo not drawn) [Example 168a, N-((3-(thiophen-2-yl)-4,5-dihydroisoxazol-5-yl)methyl)adamantan-1-amine] | A (key: (A)=31-95%; (B)=0-30%)
c1c[nH]c(CNC23CC4CC(CC(C4)C2)C3)c1 [Example 72a, Adamantan-1-yl-(1H-pyrrol-2-ylmethyl)-amine] | B (key: (A)=31-95%; (B)=0-30%)

Same assay, conditions: pH 5.5

SMILES | S31N OOcyte Inhibition at 100 uM (%)
COc1ccc(-c2cc(CNC34CC5CC(CC(C5)C3)C4)no2)c(OC)c1 [Example 41b, N-((5-(2,4-dimethoxyphenyl)isoxazol-3-yl)methyl)adamantan-1-amine] | A (key: (A)=31-95%; (B)=0-30%)
COc1ccc(-c2nc(CNC34CC5CC(CC(C5)C3)C4)no2)c(OC)c1 [Example 34b, N-((5-(2,4-dimethoxyphenyl)-1,2,4-oxadiazol-3-yl)methyl)adamantan-1-amine] | A (key: (A)=31-95%; (B)=0-30%)
CCCc1nc(CNC23CC4CC(CC(C4)C2)C3)no1 [Example 29b, N-((5-propyl-1,2,4-oxadiazol-3-yl)methyl)adamantan-1-amine] | A (key: (A)=31-95%; (B)=0-30%)
Oc1cc(-c2ccsc2)ccc1CNC12CC3CC(CC(C3)C1)C2 [Example 8b] | A (key: (A)=31-95%; (B)=0-30%)
Cc1csc(-c2ccc(CNC34CC5CC(CC(C5)C3)C4)s2)c1 [Example 51b, N-((4′-Methyl-[2,2′-bithiophen]-5-yl)methyl)adamantan-1-amine] | A (key: (A)=31-95%; (B)=0-30%)
Oc1cc(-c2ccco2)ccc1CNC12CC3CC(CC(C3)C1)C2 [Example 7b, 2-((-Adamantan-1-ylamino)methyl)-5-(furan-2-yl)phenol] | A (key: (A)=31-95%; (B)=0-30%)
C1CCC(c2nc(CNC34CC5CC(CC(C5)C3)C4)no2)CC1 [Example 24b] | A (key: (A)=31-95%; (B)=0-30%)
c1cnc2[nH]c(CNC34CC5CC(CC(C5)C3)C4)nc2c1 [Example 82b, N-((3H-imidazo[4,5-b]pyridin-2-yl)methyl)adamantan-1-amine] | A (key: (A)=31-95%; (B)=0-30%)
FC(F)(F)c1nnc(CNC23CC4CC(CC(C4)C2)C3)o1 [Example 14b, N-((5-(trifluoromethyl)-1,3,4-oxadiazol-2-yl)methyl)adamantan-1-amine] | A (key: (A)=31-95%; (B)=0-30%)
Cc1cccc(-c2ncc(CNC34CC5CC(CC(C5)C3)C4)cn2)c1 [Example 63b, N-((2-mtolylpyrimidin-5-yl)methyl)adamantan-1-amine] | A (key: (A)=31-95%; (B)=0-30%)
CSc1ccccc1-c1cnc(CNC23CC4CC(CC(C4)C2)C3)s1 [Example 76b, Adamantan-1-yl-[5-(2-methylsulfanyl-phenyl)-thiazol-2-ylmethyl]-amine] | A (key: (A)=31-95%; (B)=0-30%)
Cc1nc(CNC23CC4CC(CC(C4)C2)C3)cs1 [Example 12b, N-((2-methylthiazol-4-yl)methyl)adamantan-1-amine] | A (key: (A)=31-95%; (B)=0-30%)
C[Si](C)(C)c1ccc(CNC23CC4CC(CC(C4)C2)C3)s1 [Example 75b, Adamantan-1-yl-(5-trimethylsilanyl-thiophen-2-ylmethyl)-amine] | A (key: (A)=31-95%; (B)=0-30%)
CSc1ccccc1-c1ccc(CNC23CC4CC(CC(C4)C2)C3)nc1 [Example 67b, Adamantan-1-yl-[5-(2-methylsulfanyl-phenyl)-pyridin-2-ylmethyl]-amine] | A (key: (A)=31-95%; (B)=0-30%)
Nc1ncc(CNC23CC4CC(CC(C4)C2)C3)s1 [Example 19b] | B (key: (A)=31-95%; (B)=0-30%)
c1csc(-c2nc(CNC34CC5CC(CC(C5)C3)C4)cs2)c1 [Example 11b, N-((2-(thiophen-2-yl)thiazol-4-yl)methyl)adamantan-1-amine] | A (key: (A)=31-95%; (B)=0-30%)
CC(C)c1cc(CNC23CC4CC(CC(O)(C4)C2)C3)no1 [Example 85b, (1s,3r,5R,7S)-3-(((5-isopropylisoxazol-3-yl)methyl)amino)adamantan-1-61] | A (key: (A)=31-95%; (B)=0-30%)
Cc1csc(-c2ccc(CNC34CC5CC(CC(C5)C3)C4)cc2)c1 [Example 5b, N-(4-(4-Methylthiophen-2-yl)benzyl)adamantan-1-amine] | A (key: (A)=31-95%; (B)=0-30%)
COc1ccc(Cc2nc(CNC34CC5CC(CC(C5)C3)C4)no2)cc1OC [Example 28b, N-((5-(3,4-dimethoxybenzyl)-1,2,4-oxadiazol-3-yl)methyl)adamantan-1-amine] | A (key: (A)=31-95%; (B)=0-30%)
c1csc(-c2ccc(CNC34CC5CC(CC(C5)C3)C4)nn2)c1 [Example 71b, Adamantan-1-yl-(6-thiophen-2-yl-pyridazin-3-ylmethyl)-amine] | A (key: (A)=31-95%; (B)=0-30%)
c1ccc(-c2cnc(CNC34CC5CC(CC(C5)C3)C4)[nH]2)cc1 [Example 53b, N-((5-phenyl-1H-imidazol-2-yl)methyl)adamantan-1-amine] | A (key: (A)=31-95%; (B)=0-30%)
